How the values were obtained:
[1] = target: Beta-2 adrenergic receptor (Homo sapiens, UniProt P07550); format: functional, cell-based
[2] = target: T1, Gastrin/cholecystokinin type B receptor (Homo sapiens, UniProt P32239)
T1 sequence (P32239 whole entry): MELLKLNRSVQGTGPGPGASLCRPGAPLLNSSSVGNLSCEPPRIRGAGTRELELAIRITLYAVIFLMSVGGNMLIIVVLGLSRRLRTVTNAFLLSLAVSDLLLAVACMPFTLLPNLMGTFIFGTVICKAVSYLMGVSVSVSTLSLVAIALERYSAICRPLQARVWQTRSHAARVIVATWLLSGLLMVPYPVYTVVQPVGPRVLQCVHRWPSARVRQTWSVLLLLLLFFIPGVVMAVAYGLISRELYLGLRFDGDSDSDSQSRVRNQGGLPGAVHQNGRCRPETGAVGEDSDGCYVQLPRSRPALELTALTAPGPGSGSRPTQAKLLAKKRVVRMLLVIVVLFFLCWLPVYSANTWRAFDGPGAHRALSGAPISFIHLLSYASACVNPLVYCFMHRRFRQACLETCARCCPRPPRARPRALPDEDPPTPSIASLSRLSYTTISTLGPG

[3] = target: Muscarinic acetylcholine receptor M3 (Homo sapiens, UniProt P20309)
[4] = target: 5-hydroxytryptamine receptor 2B (Homo sapiens, UniProt P41595); format: functional, cell-based
Progesterone receptor = target: T2, Progesterone receptor (Homo sapiens, UniProt P06401); format: functional
T2 sequence (P06401 whole entry): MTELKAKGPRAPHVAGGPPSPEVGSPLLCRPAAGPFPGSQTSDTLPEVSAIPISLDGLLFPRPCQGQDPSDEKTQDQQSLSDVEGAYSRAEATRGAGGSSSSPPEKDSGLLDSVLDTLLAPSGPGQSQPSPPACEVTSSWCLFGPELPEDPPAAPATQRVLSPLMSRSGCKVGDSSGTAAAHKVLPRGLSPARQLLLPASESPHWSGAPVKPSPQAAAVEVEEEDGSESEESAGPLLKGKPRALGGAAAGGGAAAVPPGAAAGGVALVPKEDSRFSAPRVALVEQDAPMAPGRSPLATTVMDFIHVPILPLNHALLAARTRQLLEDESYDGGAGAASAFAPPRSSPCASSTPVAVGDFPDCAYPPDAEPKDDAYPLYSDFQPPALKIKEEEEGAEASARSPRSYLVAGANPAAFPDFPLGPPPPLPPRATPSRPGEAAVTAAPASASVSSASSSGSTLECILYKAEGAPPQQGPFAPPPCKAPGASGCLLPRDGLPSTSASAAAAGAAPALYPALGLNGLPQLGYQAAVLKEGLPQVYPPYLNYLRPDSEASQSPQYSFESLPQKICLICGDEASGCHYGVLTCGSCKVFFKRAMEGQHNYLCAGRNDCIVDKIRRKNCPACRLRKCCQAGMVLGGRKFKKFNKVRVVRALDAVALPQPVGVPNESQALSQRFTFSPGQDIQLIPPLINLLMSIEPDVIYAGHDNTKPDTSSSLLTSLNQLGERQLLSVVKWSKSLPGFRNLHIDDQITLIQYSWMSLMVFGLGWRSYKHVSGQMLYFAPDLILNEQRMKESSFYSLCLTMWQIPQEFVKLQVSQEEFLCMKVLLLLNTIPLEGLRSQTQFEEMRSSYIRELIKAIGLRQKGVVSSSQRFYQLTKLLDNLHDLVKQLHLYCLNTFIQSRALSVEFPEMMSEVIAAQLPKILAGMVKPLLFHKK

Thromboxane A2 receptor = target: T3, Thromboxane A2 receptor (Homo sapiens, UniProt P21731)
T3 sequence (P21731 whole entry): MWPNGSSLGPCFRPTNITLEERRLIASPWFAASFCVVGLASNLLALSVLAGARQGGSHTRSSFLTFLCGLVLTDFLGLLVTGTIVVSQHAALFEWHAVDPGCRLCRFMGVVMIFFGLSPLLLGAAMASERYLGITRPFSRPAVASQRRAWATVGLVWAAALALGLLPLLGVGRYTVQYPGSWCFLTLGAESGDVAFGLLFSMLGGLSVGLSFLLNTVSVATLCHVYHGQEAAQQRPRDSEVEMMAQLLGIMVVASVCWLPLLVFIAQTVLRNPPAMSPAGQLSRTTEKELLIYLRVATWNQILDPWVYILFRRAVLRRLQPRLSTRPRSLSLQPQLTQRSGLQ

[5] = target: cGMP-inhibited 3',5'-cyclic phosphodiesterase 3A (Homo sapiens, UniProt Q14432); format: functional
Mu-type opioid receptor = Mu-type opioid receptor (Homo sapiens, UniProt P35372)
[6] = target: T4, Alpha-1A adrenergic receptor (Homo sapiens, UniProt P35348)
T4 sequence (P35348 whole entry): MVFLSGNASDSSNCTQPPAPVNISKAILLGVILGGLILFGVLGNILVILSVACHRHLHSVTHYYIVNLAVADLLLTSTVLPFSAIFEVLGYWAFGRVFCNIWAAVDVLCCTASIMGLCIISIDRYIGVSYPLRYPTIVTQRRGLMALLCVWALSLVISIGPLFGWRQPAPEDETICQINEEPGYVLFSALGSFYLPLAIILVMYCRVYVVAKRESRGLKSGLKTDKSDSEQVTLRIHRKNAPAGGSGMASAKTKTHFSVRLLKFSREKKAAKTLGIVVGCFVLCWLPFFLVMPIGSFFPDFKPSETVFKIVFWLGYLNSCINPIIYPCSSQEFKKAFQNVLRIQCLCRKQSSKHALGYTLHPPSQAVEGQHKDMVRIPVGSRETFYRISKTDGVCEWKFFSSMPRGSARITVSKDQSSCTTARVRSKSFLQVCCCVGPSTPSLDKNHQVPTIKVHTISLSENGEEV
Note: assay procedure not described here.

cGMP-inhibited 3',5'-cyclic phosphodiesterase 3A, sequence (Q14432 whole entry): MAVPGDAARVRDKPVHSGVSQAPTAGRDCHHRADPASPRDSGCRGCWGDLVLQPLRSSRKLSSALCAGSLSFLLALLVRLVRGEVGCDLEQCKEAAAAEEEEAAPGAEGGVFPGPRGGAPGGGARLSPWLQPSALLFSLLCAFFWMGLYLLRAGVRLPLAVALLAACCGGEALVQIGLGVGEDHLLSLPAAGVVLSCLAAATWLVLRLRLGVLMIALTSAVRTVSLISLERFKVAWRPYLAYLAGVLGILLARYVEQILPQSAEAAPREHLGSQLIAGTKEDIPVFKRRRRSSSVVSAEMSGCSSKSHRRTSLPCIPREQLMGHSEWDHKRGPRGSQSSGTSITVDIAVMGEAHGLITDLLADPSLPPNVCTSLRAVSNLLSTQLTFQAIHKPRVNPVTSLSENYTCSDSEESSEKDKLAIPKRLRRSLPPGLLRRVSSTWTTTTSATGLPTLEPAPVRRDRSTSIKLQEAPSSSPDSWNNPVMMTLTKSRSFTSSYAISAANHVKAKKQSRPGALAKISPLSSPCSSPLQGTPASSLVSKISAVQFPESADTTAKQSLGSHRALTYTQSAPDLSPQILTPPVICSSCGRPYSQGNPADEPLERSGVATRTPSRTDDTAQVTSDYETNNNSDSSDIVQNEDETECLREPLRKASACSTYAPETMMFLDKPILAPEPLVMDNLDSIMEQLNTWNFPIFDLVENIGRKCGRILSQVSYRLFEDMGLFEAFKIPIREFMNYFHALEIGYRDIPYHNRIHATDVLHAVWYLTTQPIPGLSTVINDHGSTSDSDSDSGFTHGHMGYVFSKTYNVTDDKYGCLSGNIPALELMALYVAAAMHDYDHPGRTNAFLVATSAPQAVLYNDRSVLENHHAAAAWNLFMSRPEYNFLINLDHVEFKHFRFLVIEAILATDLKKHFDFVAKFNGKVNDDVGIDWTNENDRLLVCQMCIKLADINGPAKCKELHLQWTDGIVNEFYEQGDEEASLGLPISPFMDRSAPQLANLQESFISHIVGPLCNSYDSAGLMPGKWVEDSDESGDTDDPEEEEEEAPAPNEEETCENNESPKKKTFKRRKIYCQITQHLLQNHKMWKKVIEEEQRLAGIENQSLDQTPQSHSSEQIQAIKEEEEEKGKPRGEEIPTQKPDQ
Beta-2 adrenergic receptor, sequence (P07550 whole entry): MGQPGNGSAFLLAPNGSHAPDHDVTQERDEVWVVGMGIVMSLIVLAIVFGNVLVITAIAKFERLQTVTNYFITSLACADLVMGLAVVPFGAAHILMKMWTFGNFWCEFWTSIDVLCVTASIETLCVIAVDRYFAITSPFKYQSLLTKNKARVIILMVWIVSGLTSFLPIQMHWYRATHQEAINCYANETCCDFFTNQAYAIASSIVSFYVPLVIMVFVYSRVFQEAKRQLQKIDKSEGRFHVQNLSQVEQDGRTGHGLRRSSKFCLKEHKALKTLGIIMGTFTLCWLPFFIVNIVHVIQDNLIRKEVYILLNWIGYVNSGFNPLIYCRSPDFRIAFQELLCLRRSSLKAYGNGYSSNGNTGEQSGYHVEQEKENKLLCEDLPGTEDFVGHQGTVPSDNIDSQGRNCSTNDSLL
5-hydroxytryptamine receptor 2B, sequence (P41595 whole entry): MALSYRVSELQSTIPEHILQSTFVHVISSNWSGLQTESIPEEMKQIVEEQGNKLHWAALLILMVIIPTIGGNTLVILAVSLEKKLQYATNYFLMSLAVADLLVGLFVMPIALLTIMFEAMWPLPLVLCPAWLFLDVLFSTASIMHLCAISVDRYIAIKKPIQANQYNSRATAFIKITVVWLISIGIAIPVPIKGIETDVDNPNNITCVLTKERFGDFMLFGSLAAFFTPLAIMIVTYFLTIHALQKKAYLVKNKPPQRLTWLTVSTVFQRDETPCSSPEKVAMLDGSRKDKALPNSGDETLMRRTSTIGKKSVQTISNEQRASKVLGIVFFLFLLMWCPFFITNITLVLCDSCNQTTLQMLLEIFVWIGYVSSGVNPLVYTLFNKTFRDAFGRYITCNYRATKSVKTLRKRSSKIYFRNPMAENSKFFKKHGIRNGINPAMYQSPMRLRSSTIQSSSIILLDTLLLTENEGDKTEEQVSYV
Muscarinic acetylcholine receptor M3, sequence (P20309 whole entry): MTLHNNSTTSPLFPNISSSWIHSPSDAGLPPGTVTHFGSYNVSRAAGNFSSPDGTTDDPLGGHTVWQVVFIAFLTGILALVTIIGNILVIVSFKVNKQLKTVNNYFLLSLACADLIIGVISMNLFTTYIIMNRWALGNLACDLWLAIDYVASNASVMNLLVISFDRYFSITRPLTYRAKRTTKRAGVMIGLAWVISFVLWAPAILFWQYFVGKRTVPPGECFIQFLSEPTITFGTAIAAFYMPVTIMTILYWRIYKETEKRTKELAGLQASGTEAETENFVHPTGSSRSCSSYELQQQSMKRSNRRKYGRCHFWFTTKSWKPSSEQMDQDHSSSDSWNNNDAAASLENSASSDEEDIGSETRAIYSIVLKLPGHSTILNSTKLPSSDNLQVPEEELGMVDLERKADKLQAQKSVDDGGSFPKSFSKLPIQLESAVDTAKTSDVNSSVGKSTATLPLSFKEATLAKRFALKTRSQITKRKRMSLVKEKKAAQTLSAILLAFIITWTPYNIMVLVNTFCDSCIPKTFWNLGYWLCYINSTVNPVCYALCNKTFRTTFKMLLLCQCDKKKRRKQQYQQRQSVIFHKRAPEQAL
Mu-type opioid receptor, sequence (P35372 whole entry): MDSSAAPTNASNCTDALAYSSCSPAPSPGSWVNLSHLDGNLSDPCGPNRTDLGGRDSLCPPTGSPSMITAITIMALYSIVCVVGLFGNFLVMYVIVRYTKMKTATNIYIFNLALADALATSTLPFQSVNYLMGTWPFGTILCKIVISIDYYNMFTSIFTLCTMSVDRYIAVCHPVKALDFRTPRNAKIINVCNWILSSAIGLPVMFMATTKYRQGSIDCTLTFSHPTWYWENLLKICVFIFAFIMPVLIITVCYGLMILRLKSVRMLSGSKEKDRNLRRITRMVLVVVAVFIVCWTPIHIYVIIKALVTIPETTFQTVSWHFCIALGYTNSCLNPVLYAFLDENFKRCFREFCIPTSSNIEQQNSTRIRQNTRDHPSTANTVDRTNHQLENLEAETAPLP

Row | Structure (SMILES) | AC50 [2] [µM] | AC50 [3] [µM] | AC50 [4] [µM] | AC50 (Progesterone receptor) [µM] | AC50 (Thromboxane A2 receptor) [µM] | AC50 [5] [µM] | AC50 [6] [µM] | AC50 [1] [µM] | AC50 (Mu-type opioid receptor) [µM]
1 | CC(NCCC(c1ccccc1)c1ccccc1)c1ccccc1 (configuration not stated) [FENDILINE] |  |  |  |  |  |  |  |  | 0.78
2 | COc1ccc(C(=O)c2ccccc2)c(O)c1 [OXYBENZONE] |  | > 30 | > 30 |  |  | > 30 |  | > 30 | 
3 | CCC(=O)c1ccc2c(c1)N(CC(C)N(C)C)c1ccccc1S2 (configuration not stated) [PROPIOMAZINE] |  | 0.18 | > 10 | > 30 | > 10 | > 30 | 0.0294 |  | 14
4 | CCn1c(=O)c2c(nc(/C=C/c3ccc(OC)c(OC)c3)n2C)n(CC)c1=O [ISTRADEFYLLINE] |  |  |  | > 30 |  | > 30 |  |  | 
5 | Cc1cn(-c2cc(NC(=O)c3ccc(C)c(Nc4nccc(-c5cnccn5)n4)c3)cc(C(F)(F)F)c2)cn1 [RADOTINIB] |  |  |  |  |  | 30 |  |  | 
6 | Cc1ccc(O)c([C@H](CCN(C(C)C)C(C)C)c2ccccc2)c1 [TOLTERODINE] |  |  | > 10 |  |  |  | 2.74 |  | > 10
7 | N=C(N)NC(=O)c1nc(Cl)c(N)nc1N [AMILORIDE] | > 30 |  | > 30 | > 30 | > 30 | > 30 | 2.69 |  | > 10
8 | CC1(C)O[C@@H]2C[C@H]3[C@@H]4CCC5=CC(=O)C=C[C@]5(C)[C@@]4(F)[C@@H](O)C[C@]3(C)[C@]2(C(=O)CO)O1 [TRIAMCINOLONE ACETONIDE] | > 30 |  | > 30 |  | > 30 | > 30 |  |  | 
9 | CC(C)(C)NCC(O)COc1ccccc1C#N (configuration not stated) [BUNITROLOL] |  | > 30 | > 30 |  |  | > 30 |  | > 30 | 
10 | C[C@]12CCC(=O)C=C1C=C[C@@H]1[C@@H]2CC[C@@]2(C)[C@H]1CC[C@@]21CCC(=O)O1 [CANRENONE] | > 30 | > 30 | > 30 |  | > 30 | > 30 |  | > 30 | 
11 | Oc1cc(Cl)ccc1Oc1ccc(Cl)cc1Cl [TRICLOSAN] | > 30 | > 30 | > 30 | 18 | 21 | > 30 |  | > 30 | 
12 | COc1cccc2c1C(=O)c1c(O)c3c(c(O)c1C2=O)C[C@@](O)(C(=O)CO)C[C@@H]3O[C@H]1C[C@H](N)[C@H](O)[C@H](C)O1 [DOXORUBICIN] | > 30 |  | > 10 | > 30 |  | > 30 | > 10 | > 30 | > 30

Second part, led by results:

Row | AC50 [2] [µM] | AC50 [3] [µM] | AC50 [4] [µM] | AC50 (Progesterone receptor) [µM] | AC50 (Thromboxane A2 receptor) [µM] | AC50 [5] [µM] | AC50 [6] [µM] | Structure (SMILES) | AC50 [1] [µM] | AC50 (Mu-type opioid receptor) [µM]
13 | > 30 | > 30 | > 30 | > 30 | > 30 | > 30 |  | CC(C)(Oc1ccc(Cl)cc1)C(=O)OCCOC(=O)c1cccnc1 [ETOFIBRATE] | > 30 | 
14 |  | > 10 | > 10 | > 30 | > 10 | > 30 | > 10 | CN(C)[C@@H]1C(O)=C(C(=O)NCN2CCCC2)C(=O)[C@@]2(O)C(O)=C3C(=O)c4c(O)cccc4[C@@](C)(O)[C@H]3C[C@@H]12 [ROLITETRACYCLINE] |  | > 30
15 | 5.3 | > 30 | > 30 |  | 16 | > 30 |  | COc1ccc(-c2cc(=S)ss2)cc1 [ANETHOLTRITHION] |  | 
16 |  | > 30 | > 10 | > 10 | > 10 | > 30 | 11.8 | CN(C)CCC(O)(c1ccccc1)c1ccccc1Cl (configuration not stated) [CHLOPHEDIANOL] |  | > 30
17 | > 30 |  | > 10 |  | > 30 | > 30 | > 10 | C[C@]12C=CC(=O)C=C1CC[C@@H]1[C@@H]2[C@@H](O)C[C@@]2(C)[C@H]1CC[C@]2(O)C(=O)CO [PREDNISOLONE] | > 30 | > 30
18 | > 30 | > 30 | > 30 | > 3 |  | > 30 |  | C[C@]12C=CC(=O)C=C1C(Cl)=C[C@@H]1[C@@H]2[C@@H](O)C[C@@]2(C)[C@H]1CC[C@]2(O)C(=O)CO [CLOPREDNOL] | > 30 | 
19 | > 30 | > 30 | 26 |  | > 30 | > 30 |  | C[C@]12CCC(=O)C=C1[C@@H]1C[C@@H]1[C@H]1[C@@H]3[C@@H]4C[C@@H]4[C@@]4(CCC(=O)O4)[C@@]3(C)CC[C@@H]12 [DROSPIRENONE] |  | 

Source: ChEMBL document CHEMBL5291721, “A preclinical secondary pharmacology resource illuminates target-adverse drug reaction associations of marketed drugs” (Nat Commun, 2023)
